We go through 1 substance from patent US20230024584A1, “ANTI-CANCER COMPOSITIONS AND METHODS” (University of Kentucky Research Foundation, priority 2019, published 2023).

What all share (type): cell-based
For test [1], the system named is SUM159, LM2, MCF-7, 4T1, 4T1luc and MDA-MB-453 cells. The test is described as follows: Clonogenic assay, breast cancer cell lines. Conditions: 1.25, 2.5 or 5 μM for 72 h, then 10 days culture. How it is done: Clonogenic assays were also performed to determine the effect of lomitapide treatment on various breast cancer cell lines, with data reflected in FIGS. 22A-22G. Initially, 100 SUM159, LM2, MCF-7, 4T1 or 4T1^luc cells, or 1000 MDA-MB-453 cells were seeded into 6-cm cell culture dishes. After overnight culture, vehicle control (DMSO) or lomitapide (final concentration: 1.25, 2.5 or 5 μM) were added into the corresponding dishes. After 72 h culture, the DMSO- or lomitapide-containing media were removed and the fresh culture media were added in followed by additional 10 days culture. The culture media were replaced with fresh media every three days. At the end of cell culture, the final clones in dishes were fixed by 4% paraformaldehyde and stained with crystal violet. FIG. 22A includes representative images from each treatment groups, and FIGS. 22B-22G include the quantitation of clone numbers (mean standard deviation, n=3). * p<0.05, compared to vehicle control (negative control) treatment group.

Test [2] relates to SUM159, MCF-7 and MDA-MB-453 cells. Nature of the test: Soft agar colony formation assay, breast cancer cell lines. Conditions: 1.25, 2.5 or 5 μM, 1 month culture. How it is done: With reference to FIGS. 23A-23D, soft agar colony formation assays were also performed. Initially, 1000 SUM159 or MCF-7 cells, 10000 MDA-MB-453 cells were seeded into the upper agar of each dish; meanwhile, vehicle control (DMSO) or lomitapide (final concentration: 1.25, 2.5 or 5 μM) were added into the upper agar of corresponding dishes. After 1 month continuous culture, the final colonies formed in the agar were fixed by methanol and stained with crystal violet. FIG. 23A includes representative soft agar images from each treatment groups. FIGS. 23B-23D include the quantitation of soft agar clone numbers (mean standard deviation, n=3). * p<0.05, compared to vehicle control (negative control) treatment group.

For test [3], the system named is PC9, H1975, PC9GR4, H460 and A549 cells. Nature of the test: MTT assay, lung cancer cell lines. Conditions: 1.25, 2.5 and 5 μM; 24, 48, 72 h. How it is done:
FIGS. 27A-27E include the results of studies to determine the effect of lomitapide treatment on lung cancer cell growth of various cell lines as determined by MTT assay. Initially, 1000 PC9, H1975, PC9GR4, H460, or A549 cells were seeded into 96-well plates. After overnight culture, vehicle (DMSO) or lomitapide (final concentration: 1.25, 2.5 and 5 μM) were added into the corresponding wells. After 24 h, 48 h and 72 h incubation, the culture media were aspirated off and 50 μL of 0.5 mg/mL of MTT containing medium was added into each well. After 3h incubation, 200 μl of DMSO were added into each well. The OD value of each well was read under the wavelength of 570 nm. The results are presented as mean±standard deviation (n=6) * p<0.05, compared to vehicle control (negative control) treatment group.
(Tetrazolium assays rely on reduction of a dye to a coloured formazan, in cell work by metabolically active cells.)

For test [4], the system named is MCF-7, LM2 and 4T1luc cells. Nature of the test: Apoptosis (7-AAD/APC-annexin V flow cytometry), breast cancer cells. The conditions noted are these: 1.25, 2.5 or 5 μM, 48 h. On the procedure:
With reference to FIGS. 26A-26C, studies were also conducted to determine the effect of lomitapide treatment on apoptosis of breast cancer cells. Initially, 0.1-0.3 million MCF-7, LM2 or 4T1^luc cells were seeded into 6 cm cell culture dishes and cultured overnight. Vehicle control (DMSO) or lomitapide (final concentration: 1.25, 2.5 or 5 μM) was added then into corresponding dishes. After 48 h incubation, the cells were harvested, stained by 7-AAD/APC-annixin V and analyzed by flow cytometry. The results are presented as mean±standard deviation (n=3). * p<0.05, compared to vehicle control (negative control) treatment group.
A general note: Flow cytometry measures light scatter and fluorescence of single cells or particles in a stream.

Test [5] concerns H1975, PC9, PC9GR4 and H460 cells. The test is described as follows: Clonogenic assay, lung cancer cell lines. Conditions: 1.25, 2.5 or 5 μM for 72 h, then 10 days culture. On the procedure:
Clonogenic assays were also performed to determine the effect of lomitapide treatment on various lung cancer cell lines, with data reflected in FIGS. 28A-28E. Initially, 100 H1975, PC9, PC9GR4, or H460 cells were seeded into 6-cm cell culture dishes. After overnight culture, vehicle control (DMSO) or lomitapide (final concentration: 1.25, 2.5 or 5 μM) were added into the corresponding dishes. After 72 h culture, the DMSO- or lomitapide-containing media were removed and the fresh culture media were added in followed by additional 10 days culture. The culture media were replaced with fresh media every three days. At the end of cell culture, the final clones in dishes were fixed by 4% paraformaldehyde and stained with crystal violet. FIG. 28A includes representative images from each treatment groups. FIGS. 28B-28E include quantitation of clone numbers (mean±standard deviation, n=3). * p<0.05, compared to vehicle control (negative control) treatment group.

On to lomitapide, for which the “breast cancer cell growth (clone numbers)” value in test [1] is on record as “significantly reduces breast cancer cell growth”. For the same substance, the “breast cancer cell growth (soft agar clone numbers)” value in test [2] is reported as “significantly reduces breast cancer cell growth”. Besides, the “lung cancer cell growth (MTT)” value in test [3] was “significantly reduces lung cancer cell growth”. Besides, in test [4], the apoptosis entry is reported as “induces apoptosis”. Moreover, in test [5], the “lung cancer cell growth (clone numbers)” value is reported as “significantly reduces lung cancer cell growth”.
